Source: ChEMBL document CHEMBL3885861, “Open TG-GATES”

Species on record: Rattus norvegicus
Experiment: Open TG-GATES - Regimen: Single
Assay type: toxicity, organism-based, Sprague-Dawley
Set-up: regimen Single, gender Male, age 6 weeks
Conditions: in vivo, po, route gavage; for gamma-GTP / ALP / AST / CRE / DBIL / GLC / IP / K / LDH / Na / PL / RALB / TBIL / TC / TP: tissue Plasma; for Bas / Eos / Lym / MCHC / MCV / Mono / Neu / RBC / Ret / WBC: tissue Blood; for KIDNEY_L / KIDNEY_R / KIDNEY_TOTAL: tissue Kidney; for LIVER: tissue Liver
[1] = 200 mg/kg, 3 h, dose level Middle
[2] = 200 mg/kg, 6 h, dose level Middle
[3] = 200 mg/kg, 9 h, dose level Middle
[4] = 200 mg/kg, 24 h, dose level Middle
[5] = 600 mg/kg, 3 h, dose level High
[6] = 600 mg/kg, 6 h, dose level High
[7] = 600 mg/kg, 9 h, dose level High
[8] = 600 mg/kg, 24 h, dose level High

Q: Which results are given for `CS(=O)(=O)O.Cc1ccc(NC(=O)c2ccc(CN3CCN(C)CC3)cc2)cc1Nc1nccc(-c2cccnc2)n1` [IMATINIB MESYLATE]?
A: gamma-GTP (60 mg/kg, 24 h, dose level Low): 0.9 IU/L; Bas [1]: 0%; Eos [1]: 0.6%; Lym [1]: 76.2%; MCHC [1]: 32.5%; MCV [1]: 63 fL; Mono [1]: 2.4%; Neu [1]: 19.8%; RBC [1]: 602.4 x10_4/ul; Ret [1]: 10.1%; WBC [1]: 94 x10_2/uL; KIDNEY_L [1]: 0.8 g; KIDNEY_R [1]: 0.9 g; KIDNEY_TOTAL [1]: 1.7 g; LIVER [1]: 8.5 g; ALP [1]: 1473.2 IU/L; AST [1]: 86.2 IU/L; CRE [1]: 0.2 mg/dL; DBIL [1]: 0.014 mg/dL; GLC [1]: 185 mg/dL; IP [1]: 8.5 mg/dL; K [1]: 3.9 meq/L; LDH [1]: 224.6 IU/L; Na [1]: 142.7 meq/L; PL [1]: 131.8 mg/dL; RALB [1]: 4 g/dL; TBIL [1]: 0.042 mg/dL; TC [1]: 75.8 mg/dL; TP [1]: 5.4 g/dL; gamma-GTP [1]: 0.8 IU/L; Bas [2]: 0%; Eos [2]: 0%; Lym [2]: 75.8%; MCHC [2]: 32.7%; MCV [2]: 63 fL; Mono [2]: 1.8%; Neu [2]: 21.6%; RBC [2]: 605.6 x10_4/ul; Ret [2]: 9.4%; WBC [2]: 92.8 x10_2/uL; KIDNEY_L [2]: 0.9 g; KIDNEY_R [2]: 0.9 g; KIDNEY_TOTAL [2]: 1.8 g; LIVER [2]: 8.3 g; ALP [2]: 1397.4 IU/L; AST [2]: 83.8 IU/L; CRE [2]: 0.2 mg/dL; DBIL [2]: 0.014 mg/dL; GLC [2]: 184.2 mg/dL; IP [2]: 9.1 mg/dL; K [2]: 3.8 meq/L; LDH [2]: 187.4 IU/L; Na [2]: 139.7 meq/L; PL [2]: 147.6 mg/dL; RALB [2]: 4 g/dL; TBIL [2]: 0.046 mg/dL; TC [2]: 81.6 mg/dL; TP [2]: 5.4 g/dL; gamma-GTP [2]: 0.8 IU/L; Bas [3]: 0%; Eos [3]: 0%; Lym [3]: 78.6%; MCHC [3]: 33.1%; MCV [3]: 64.1 fL; Mono [3]: 1%; Neu [3]: 19.2%; RBC [3]: 566.4 x10_4/ul; Ret [3]: 10.1%; KIDNEY_L [3]: 0.9 g; KIDNEY_R [3]: 0.9 g; KIDNEY_TOTAL [3]: 1.8 g; LIVER [3]: 7.8 g; ALP [3]: 1450.6 IU/L; AST [3]: 80.6 IU/L; CRE [3]: 0.2 mg/dL; DBIL [3]: 0.016 mg/dL; GLC [3]: 180 mg/dL; IP [3]: 9 mg/dL; K [3]: 4 meq/L; LDH [3]: 197.8 IU/L; Na [3]: 139.8 meq/L; PL [3]: 145.8 mg/dL; RALB [3]: 4.2 g/dL; TBIL [3]: 0.062 mg/dL; TC [3]: 82.6 mg/dL; TP [3]: 5.5 g/dL; gamma-GTP [3]: 0.9 IU/L; Bas [4]: 0%; Eos [4]: 0.6%; Lym [4]: 81%; MCHC [4]: 33%; MCV [4]: 63.9 fL; Mono [4]: 1.2%; Neu [4]: 16.2%; RBC [4]: 583.2 x10_4/ul; Ret [4]: 7.9%; WBC [4]: 97.7 x10_2/uL; KIDNEY_L [4]: 0.9 g; KIDNEY_R [4]: 0.9 g; KIDNEY_TOTAL [4]: 1.8 g; LIVER [4]: 8.6 g; ALP [4]: 1768.2 IU/L; AST [4]: 98.4 IU/L; CRE [4]: 0.2 mg/dL; DBIL [4]: 0.008 mg/dL; GLC [4]: 180.4 mg/dL; IP [4]: 7.5 mg/dL; K [4]: 4 meq/L; LDH [4]: 181.8 IU/L; Na [4]: 143 meq/L; PL [4]: 148.4 mg/dL; RALB [4]: 4.1 g/dL; TBIL [4]: 0.042 mg/dL; TC [4]: 79 mg/dL; TP [4]: 5.8 g/dL; gamma-GTP [4]: 0.8 IU/L; Bas [5]: 0%; Eos [5]: 1%; Lym [5]: 74.2%; MCHC [5]: 32.7%; MCV [5]: 63.3 fL; Mono [5]: 2.6%; Neu [5]: 22.2%; RBC [5]: 595.8 x10_4/ul; Ret [5]: 9.3%; WBC [5]: 88.6 x10_2/uL; KIDNEY_L [5]: 0.9 g; KIDNEY_R [5]: 0.9 g; KIDNEY_TOTAL [5]: 1.8 g; LIVER [5]: 8.9 g; ALP [5]: 1505 IU/L; AST [5]: 86 IU/L; CRE [5]: 0.2 mg/dL; DBIL [5]: 0.01 mg/dL; GLC [5]: 185.4 mg/dL; IP [5]: 9 mg/dL; K [5]: 3.9 meq/L; LDH [5]: 244.6 IU/L; Na [5]: 143.3 meq/L; PL [5]: 138.4 mg/dL; RALB [5]: 4.2 g/dL; TBIL [5]: 0.044 mg/dL; TC [5]: 79 mg/dL; TP [5]: 5.6 g/dL; gamma-GTP [5]: 0.8 IU/L; Bas [6]: 0%; Eos [6]: 0.8%; Lym [6]: 67.8%; MCHC [6]: 33.1%; MCV [6]: 63.5 fL; Mono [6]: 1.6%; Neu [6]: 28.6%; RBC [6]: 589.6 x10_4/ul; Ret [6]: 8.9%; WBC [6]: 104.9 x10_2/uL; KIDNEY_L [6]: 0.9 g; KIDNEY_R [6]: 0.9 g; KIDNEY_TOTAL [6]: 1.8 g; LIVER [6]: 7.9 g; ALP [6]: 1661.2 IU/L; AST [6]: 88.2 IU/L; CRE [6]: 0.2 mg/dL; DBIL [6]: 0.016 mg/dL; GLC [6]: 180.4 mg/dL; IP [6]: 8.9 mg/dL; K [6]: 3.9 meq/L; LDH [6]: 553.8 IU/L; Na [6]: 140 meq/L; PL [6]: 159.4 mg/dL; RALB [6]: 4.1 g/dL; TBIL [6]: 0.048 mg/dL; TC [6]: 91.6 mg/dL; TP [6]: 5.3 g/dL; gamma-GTP [6]: 0.8 IU/L; Bas [7]: 0%; Eos [7]: 0%; Lym [7]: 72.2%; MCHC [7]: 32.6%; MCV [7]: 63.6 fL; Mono [7]: 1.6%; Neu [7]: 25.2%; RBC [7]: 592.6 x10_4/ul; Ret [7]: 9.7%; KIDNEY_L [7]: 0.9 g; KIDNEY_R [7]: 0.9 g; KIDNEY_TOTAL [7]: 1.8 g; LIVER [7]: 7.8 g; ALP [7]: 1627 IU/L; AST [7]: 85 IU/L; CRE [7]: 0.2 mg/dL; DBIL [7]: 0.016 mg/dL; GLC [7]: 183.2 mg/dL; IP [7]: 8.8 mg/dL; K [7]: 3.8 meq/L; LDH [7]: 180.8 IU/L; Na [7]: 140.1 meq/L; PL [7]: 140.8 mg/dL; RALB [7]: 4.2 g/dL; TBIL [7]: 0.054 mg/dL; TC [7]: 78 mg/dL; TP [7]: 5.5 g/dL; gamma-GTP [7]: 0.8 IU/L; Bas [8]: 0%; Eos [8]: 0.8%; Lym [8]: 76.4%; MCHC [8]: 33.1%; MCV [8]: 62.5 fL; Mono [8]: 2%; Neu [8]: 20.4%; RBC [8]: 584.2 x10_4/ul; Ret [8]: 7.5%; WBC [8]: 80.4 x10_2/uL; KIDNEY_L [8]: 0.9 g; KIDNEY_R [8]: 0.9 g; KIDNEY_TOTAL [8]: 1.9 g; LIVER [8]: 7.8 g; ALP [8]: 1838.6 IU/L; AST [8]: 118.4 IU/L; CRE [8]: 0.2 mg/dL; DBIL [8]: 0.016 mg/dL; GLC [8]: 175.2 mg/dL; IP [8]: 7.8 mg/dL; K [8]: 4.1 meq/L; LDH [8]: 227.6 IU/L; Na [8]: 141.8 meq/L; PL [8]: 131.4 mg/dL; RALB [8]: 4 g/dL; TBIL [8]: 0.072 mg/dL; TC [8]: 72.6 mg/dL; TP [8]: 5.6 g/dL; gamma-GTP [8]: 0.9 IU/L
